# Experiments:
# human AT1 receptor = target: T1, human AT1 receptor (Homo sapiens, UniProt P30556); experiment: AT1 receptor antagonistic activity: [125I]-angiotensin II binding assay on human AT1 receptor-expressing CHO-K1 cellular membrane fraction; conditions: 22.5 pM [125I]-angiotensin II, 1 hr room temperature
# T1 construct: expressed in transfected cells; membrane fraction
# T1 sequence (P30556 1-359): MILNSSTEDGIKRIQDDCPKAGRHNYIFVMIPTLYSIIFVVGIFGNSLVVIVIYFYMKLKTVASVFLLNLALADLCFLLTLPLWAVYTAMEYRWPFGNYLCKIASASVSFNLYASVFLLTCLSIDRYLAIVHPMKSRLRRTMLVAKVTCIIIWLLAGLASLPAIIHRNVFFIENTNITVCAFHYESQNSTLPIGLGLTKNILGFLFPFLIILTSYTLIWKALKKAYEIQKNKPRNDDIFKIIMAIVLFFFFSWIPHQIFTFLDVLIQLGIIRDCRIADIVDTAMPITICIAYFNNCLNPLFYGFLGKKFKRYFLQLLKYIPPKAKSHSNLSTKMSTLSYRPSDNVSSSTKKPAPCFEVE
# In short: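 Competition binding used radiolabelled angiotensin II on stably transfected CHO-K1 membrane fractions in Tris pH 7.4/MgCl2 buffer, optionally containing 0.3 mg/mL fatty acid-free BSA, 1 hr at room temperature. Filtration onto GF/C separated bound tracer, and nonspecific binding was measured with candesartan.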
# human PPARγ = target: T2, human PPARγ (Homo sapiens, UniProt P37231); experiment: PPARγ agonistic activity: luciferase reporter assay in PPARγ:RXRα:4ERPP/CHO-K1 cells; assay type: cell-based; conditions: CHO-K1, test compound 10^−6 M; luciferase activity of control compound X (1 μM) = 100%, non-administration group = 0%
# T2 construct: expressed in transfected cells
# T2 sequence (P37231 1-477 isoform P37231-2): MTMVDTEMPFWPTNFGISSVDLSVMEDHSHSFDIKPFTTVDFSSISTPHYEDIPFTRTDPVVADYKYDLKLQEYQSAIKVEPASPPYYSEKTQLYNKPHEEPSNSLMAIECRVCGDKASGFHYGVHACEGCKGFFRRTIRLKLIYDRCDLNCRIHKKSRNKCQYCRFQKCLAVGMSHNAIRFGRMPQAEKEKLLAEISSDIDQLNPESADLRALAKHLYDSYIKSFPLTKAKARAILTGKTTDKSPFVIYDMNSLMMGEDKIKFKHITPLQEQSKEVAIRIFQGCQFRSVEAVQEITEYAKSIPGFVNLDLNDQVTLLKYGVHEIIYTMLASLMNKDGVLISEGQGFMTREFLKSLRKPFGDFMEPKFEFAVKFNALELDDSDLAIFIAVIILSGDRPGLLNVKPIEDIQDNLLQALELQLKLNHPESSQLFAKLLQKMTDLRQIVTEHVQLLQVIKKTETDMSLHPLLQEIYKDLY
# T2 sequence (P19793 1-462 partner): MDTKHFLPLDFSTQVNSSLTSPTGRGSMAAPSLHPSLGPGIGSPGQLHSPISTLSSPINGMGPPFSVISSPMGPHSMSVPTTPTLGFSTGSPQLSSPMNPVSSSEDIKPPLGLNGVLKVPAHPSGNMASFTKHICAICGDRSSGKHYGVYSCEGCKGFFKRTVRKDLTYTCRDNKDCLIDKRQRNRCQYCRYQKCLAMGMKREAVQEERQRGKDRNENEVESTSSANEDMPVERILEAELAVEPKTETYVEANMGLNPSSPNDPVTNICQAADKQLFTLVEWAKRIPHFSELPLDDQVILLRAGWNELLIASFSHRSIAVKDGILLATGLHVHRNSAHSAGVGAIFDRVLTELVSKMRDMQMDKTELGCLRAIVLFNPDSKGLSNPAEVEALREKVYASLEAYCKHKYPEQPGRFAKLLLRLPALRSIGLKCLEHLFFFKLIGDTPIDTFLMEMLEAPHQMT
# In short: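 Activity is expressed relative to untreated cells (0%) and 1 μM reference compound X (100%), from luciferase luminescence. Reporter line: PPARγ:RXRα:4ERPP/CHO-K1, exposed to compound for one day at 37 °C in F12 medium containing 0.1% fatty-acid-free BSA.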
SMILES,IC50 (human AT1 receptor),activation at 1 µM (human PPARγ)
"CCCc1c(Cc2ccc(-c3ccccc3-c3noc(=O)[nH]3)cc2)c(=O)n(C2CCC(=NOC(C)C)CC2)c2ncnn12 (centres unmarked) [Example 193, 4-{4-[(1-methylethoxy)imino]cyclohexyl}-6-{[2′-(5-oxo-4,5-dihydro-1,2,4-oxadiazol-3-yl)biphenyl-4-yl]methyl}-7-propyl[1,2,4]triazolo[1,5-a]pyrimidin-5(4H)-one]",2 nM,28%
"CCCc1c(Cc2ccc(-c3ccccc3-c3noc(=O)[nH]3)cc2)c(=O)n(C2CCC(=NOC3CCOCC3)CC2)c2ncnn12 (centres unmarked) [Example 195, 6-{[2′-(5-oxo-4,5-dihydro-1,2,4-oxadiazol-3-yl)biphenyl-4-yl]methyl}-7-propyl-4-{4-[(tetrahydro-2H-pyran-4-yloxy)imino]cyclohexyl}[1,2,4]triazolo[1,5-a]pyrimidin-5(4H)-one]",2.5 nM,19%
"CCCc1c(Cc2ccc(-c3ccccc3-c3noc(=O)[nH]3)cc2)c(=O)n([C@H]2CC[C@H](OCC(O)(CC)CC)CC2)c2nc(C)nn12 [Example 197, 4-[trans-4-(2-ethyl-2-hydroxybutoxy)cyclohexyl]-2-methyl-6-{[2′-(5-oxo-4,5-dihydro-1,2,4-oxadiazol-3-yl)biphenyl-4-yl]methyl}-7-propyl[1,2,4]triazolo[1,5-a]pyrimidin-5(4H)-one]",2 nM,17%
"CCCc1c(Cc2ccc(-c3ccccc3-c3noc(=O)[nH]3)cc2)c(=O)n([C@H]2CC[C@]3(CC2)CC(C)=NO3)c2ncnn12 [Example 204, 4-[(5R,8R)-3-methyl-1-oxa-2-azaspiro[4.5]dec-2-en-8-yl]-6-{[2′-(5-oxo-4,5-dihydro-1,2,4-oxadiazol-3-yl)biphenyl-4-yl]methyl}-7-propyl[1,2,4]triazolo[1,5-a]pyrimidin-5(4H)-one]",2.7 nM,26%
"CCCc1c(Cc2ccc(-c3ccccc3-c3noc(=O)[nH]3)cc2)c(=O)n([C@H]2CC[C@@]3(CC2)CC(C)=NO3)c2ncnn12 [Example 205, 4-[(5S,8S)-3-methyl-1-oxa-2-azaspiro[4.5]dec-2-en-8-yl]-6-{[2′-(5-oxo-4,5-dihydro-1,2,4-oxadiazol-3-yl)biphenyl-4-yl]methyl}-7-propyl[1,2,4]triazolo[1,5-a]pyrimidin-5(4H)-one]",2.7 nM,27%
"CCCCc1c(Cc2ccc(-c3ccccc3-c3noc(=O)[nH]3)cc2)c(=O)n([C@H]2CC[C@H](OC(C)C(C)(C)O)CC2)c2ncnn12 (stereo partly drawn) [Example 206, 7-butyl-4-[trans-4-(2-hydroxy-1,2-dimethylpropoxy)cyclohexyl]-6-{[2′-(5-oxo-4,5-dihydro-1,2,4-oxadiazol-3-yl)biphenyl-4-yl]methyl}[1,2,4]triazolo[1,5-a]pyrimidin-5(4H)-one]",2.2 nM,23%
"CCCc1c(Cc2ccc(-c3ccccc3-c3noc(=O)[nH]3)cc2)c(=O)n([C@H]2CC[C@H](OCC#N)CC2)c2ncnn12 [Example 210, ({trans-4-[5-oxo-6-{[2′-(5-oxo-4,5-dihydro-1,2,4-oxadiazol-3-yl)biphenyl-4-yl]methyl}-7-propyl[1,2,4]triazolo[1,5-a]pyrimidin-4(5H)-yl]cyclohexyl}oxy)acetonitrile]",1.9 nM,33%
"CCCc1c(Cc2ccc(-c3ccccc3-c3noc(=O)[nH]3)cc2)c(=O)n([C@H]2CC[C@H](OCC(C)=O)CC2)c2ncnn12 [Example 215, 6-{[2′-(5-oxo-4,5-dihydro-1,2,4-oxadiazol-3-yl)biphenyl-4-yl]methyl}-4-[trans-4-(2-oxopropoxy)cyclohexyl]-7-propyl[1,2,4]triazolo[1,5-a]pyrimidin-5(4H)-one]",1.9 nM,24%
"CCCc1c(Cc2ccc(-c3ccccc3-c3noc(=O)[nH]3)cc2)c(=O)n([C@H]2CC[C@H](OC/C(C)=N/OC)CC2)c2ncnn12 [Example 216, 4-(trans-4-{[(2E)-2-(methoxyimino)propyl]oxy}cyclohexyl)-6-{[2′-(5-oxo-4,5-dihydro-1,2,4-oxadiazol-3-yl)biphenyl-4-yl]methyl}-7-propyl[1,2,4]triazolo[1,5-a]pyrimidin-5(4H)-one]",1.6 nM,23%
"CCCc1c(Cc2ccc(-c3ccccc3-c3noc(=O)[nH]3)cc2)c(=O)n([C@H]2CC[C@H](OCC(O)(CC)CC)CC2)c2ncnn12 [Example 225, 4-[trans-4-(2-ethyl-2-hydroxybutoxy)cyclohexyl]-6-{[2′-(5-oxo-4,5-dihydro-1,2,4-oxadiazol-3-yl)biphenyl-4-yl]methyl}-7-propyl[1,2,4]triazolo[1,5-a]pyrimidin-5(4H)-one]",2.3 nM,21%
"CCCc1c(Cc2ccc(-c3ccccc3-c3noc(=O)[nH]3)cc2)c(=O)n([C@H]2CC[C@H](OCC3(C#N)CCC3)CC2)c2ncnn12 [Example 227, 1-[({trans-4-[5-oxo-6-{[2′-(5-oxo-4,5-dihydro-1,2,4-oxadiazol-3-yl)biphenyl-4-yl]methyl}-7-propyl[1,2,4]triazolo[1,5-a]pyrimidin-4(5H)-yl]cyclohexyl}oxy)methyl]cyclobutanecarbonitrile]",2.5 nM,23%
"CCCc1c(Cc2ccc(-c3ccccc3-c3noc(=O)[nH]3)cc2)c(=O)n([C@H]2CC[C@H](OCC3(CO)CCC3)CC2)c2ncnn12 [Example 228, 4-(trans-4-{[1-(hydroxymethyl)cyclobutyl]methoxy}cyclohexyl)-6-{[2′-(5-oxo-4,5-dihydro-1,2,4-oxadiazol-3-yl)biphenyl-4-yl]methyl}-7-propyl[1,2,4]triazolo[1,5-a]pyrimidin-5(4H)-one]",1.5 nM,27%
"CCCCc1c(Cc2ccc(-c3ccccc3-c3noc(=O)[nH]3)cc2)c(=O)n([C@H]2CC[C@H](OCC(C)(C)O)CC2)c2ncnn12 [Example 232, 7-butyl-4-[trans-4-(2-hydroxy-2-methylpropoxy)cyclohexyl]-6-{[2′-(5-oxo-4,5-dihydro-1,2,4-oxadiazol-3-yl)biphenyl-4-yl]methyl}[1,2,4]triazolo[1,5-a]pyrimidin-5(4H)-one]",2.1 nM,35%
"CCCc1c(Cc2ccc(-c3ccccc3-c3noc(=O)[nH]3)cc2F)c(=O)n([C@H]2CC[C@H](OCC(C)(C)O)CC2)c2ncnn12 [Example 233, 6-{[3-fluoro-2′-(5-oxo-4,5-dihydro-1,2,4-oxadiazol-3-yl)biphenyl-4-yl]methyl}-4-[trans-4-(2-hydroxy-2-methylpropoxy)cyclohexyl]-7-propyl[1,2,4]triazolo[1,5-a]pyrimidin-5(4H)-one]",1.9 nM,26%
"CCCc1c(Cc2ccc(-c3ccccc3-c3noc(=O)[nH]3)cc2)c(=O)n([C@H]2CC[C@H](OC(C)C#N)CC2)c2ncnn12 (stereo partly drawn) [Example 244, 2-({trans-4-[5-oxo-6-{[2′-(5-oxo-4,5-dihydro-1,2,4-oxadiazol-3-yl)biphenyl-4-yl]methyl}-7-propyl[1,2,4]triazolo[1,5-a]pyrimidin-4(5H)-yl]cyclohexyl}oxy)propanenitrile]",2.3 nM,29%
"CCCc1c(Cc2ccc(-c3ccccc3-c3noc(=O)[nH]3)cc2F)c(=O)n([C@H]2CC[C@H](OC(C)C#N)CC2)c2nc(C)nn12 (stereo partly drawn) [Example 249, 2-({trans-4-[6-{[3-fluoro-2′-(5-oxo-4,5-dihydro-1,2,4-oxadiazol-3-yl)biphenyl-4-yl]methyl}-2-methyl-5-oxo-7-propyl[1,2,4]triazolo[1,5-a]pyrimidin-4(5H)-yl]cyclohexyl}oxy)propanenitrile]",2.5 nM,35%

# Source: patent US8283353B2, “Fused ring compound and use thereof” (Takeda Pharmaceutical Company Limited, priority 2009, dated 2012)
